Laboratory results as given in patent US5750538A, “Method of treating hypercholesterolemia and related disorders” (Novo Nordisk A/S, priority 1996, dated 1998).

Biological target: T1, squalene synthetase (Rattus norvegicus, UniProt Q02769)
T1 construct: Rat liver microsomal preparation; from tissue; host or cells: liver microsomes of male rats (100,000 x g pellet)
T1 sequence (Q02769 1-416): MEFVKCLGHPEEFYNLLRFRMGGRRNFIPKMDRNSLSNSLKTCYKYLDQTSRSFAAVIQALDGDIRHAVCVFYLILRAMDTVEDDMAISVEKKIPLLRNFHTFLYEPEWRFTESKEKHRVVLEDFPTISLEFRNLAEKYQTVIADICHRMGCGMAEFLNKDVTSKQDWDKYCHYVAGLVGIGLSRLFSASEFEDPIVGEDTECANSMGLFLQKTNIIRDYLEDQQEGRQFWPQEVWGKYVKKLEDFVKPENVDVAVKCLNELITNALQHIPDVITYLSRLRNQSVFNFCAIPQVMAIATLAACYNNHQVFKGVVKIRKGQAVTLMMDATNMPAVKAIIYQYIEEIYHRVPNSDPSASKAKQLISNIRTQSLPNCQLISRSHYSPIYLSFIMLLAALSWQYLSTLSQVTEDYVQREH
Test: Squalene synthetase inhibition assay in vitro (rat liver microsomal preparation, 3H-FPP)
Format: biochemical
Settings: rat liver microsomal enzyme, 3H-FPP 10 μM final conc.; for SQUALENE SYNTHETASE INHIBITION % max: maximal inhibition; for IC50: 10 min incubation at 37° C.
Procedure: Squalene synthease inhibition assay in vitro
a) Rat liver microsomal preparation
Male rats weighing 200 to 300 g were decapitated and the liver removed and placed in 10 ml icecold 0.25M sucrose, 2 mM EDTA and 50 mM Tris, HCl buffer pH 7.4. The liver was homogenized in 3×volume buffer relative to weight using a glass teflon Potter-Elvehjem homogenizer set to 1000 rpm.
The homogenate was then centrifuged for 15 min. at 12,000×g at 4° C. The resultant supernatant was gently decanted into 10 ml ultracentrifuge vials and treated at 100,000×g for 60 min. at 4° C. The microsomal pellet was resuspended in a final volume of 1 ml icecold 0.1M phosphate buffer pH 7.4 per gram liver tissue by gentle homogenization in a glass Potter-Elvehjem at 800 rpm. Aliquots of 0.5 ml (approx. 20 mg/ml protein) was stored at -80° C. until further use in the squalene synthetase inhibition assay.
To begin the assay, 20 μl of the compound of this invention or vehicle solution is added to each 16×150 screw-cap culture tube on ice. Then 580 μl of N2 flushed assay buffer is pipetted into each tube. 100 μl of cofactor is next added to each tube, followed by 1 00 μl of a dilution of microsomal enzyme (approximately 80 μg protein). The tubes are preincubated for 10 min. at 37° C., and 200 μl of the ^3 H-FPP (200,000 dpm, 10 μM final conc.) is added to each tube at two second intervals. The tubes are then incubated for exactly 10 min., shaking at 150 oscillations per min. After the 10 min. incubation, the reaction is stopped by the addition of 1 ml of 15% KOH in ethanol, and the tubes are incubated for 30 min. in a 65° C. water bath for saponification of lipids and solubilization of proteins. The tubes are cooled on ice for five min. The samples are next extracted with 5 ml of petroleum ether by shaking for 10 min. at low speed on a metabolic shaker. Each lower aqueous layer is frozen in a dry ice/alcohol bath (2-propanol/methanol, 1:1), and each organic layer is poured into another set of 16 ×150 screw-top culture tubes containing 2 ml of deionized water. Each ether layer is washed by vortexing each tube for 5 sec. The aqueous layers are again frozen in the dry ice/alcohol bath, and the ether is poured into scintillation vials. 10 ml of AquaSol® is next added to each vial, and the vials are counted for 5 min. in a scintillation counter. Percent inhibitions are calculated from the counts obtained.

SMILES	SQUALENE SYNTHETASE INHIBITION % max	IC50
c1ccc(Oc2ccc(COc3nsnc3C3CN4CCC3CC4)cc2)cc1 (centres unmarked)	83%	300 nM
CCCCCCCSc1nsnc1C1CN2CCC1CC2 (centres unmarked)	92%	890 nM
c1ccc(-c2ccc(COc3nsnc3C3CN4CCC3CC4)cc2)cc1 (centres unmarked)	60%	3900 nM
c1ccc(CCCSc2nsnc2[C@H]2CN3CCC[C@@H]2C3)cc1 (single isomer, unassigned)	72%	5100 nM
c1ccc(CCCSc2nsnc2[C@@H]2CN3CCC[C@@H]2C3)cc1 (single isomer, unassigned)	80%	1100 nM
c1ccc(CCCSc2nsnc2C2CN3CCC2CC3)cc1 (centres unmarked)	89%	900 nM
c1ccc(CCCSc2nsnc2[C@H]2CN3CC[C@@H]2C3)cc1 (relative stereo)	55%	12400 nM
